How the values were obtained:
[1] = test system: TAA-induced liver fibrotic C57BL/6J mice; assay: Serum biochemical analysis (liver function and nutrient metabolism); assay type: in vivo; details: CX groups (20 and 50 mg/kg oral, 6 weeks); vs TAA group
Description: For tests of adlay extracts, mice were randomly divided into the following seven groups (n=6, per group): (1) No treatment group (NT, normal diet), (2) Thioacetamide group (TAA, 200 mg/kg, normal diet), (3) 10% adlay seed powder (ASP) group, (4) 1% adlay leaf powder (ALP) group, (5) 1% adlay seed polysaccharide (ASPS) group, (6) 0.025% adlay seed ethanolic extract (ASE) group and (7) 0.1% ASE group. NT group received pure saline, and other groups intraperitoneally injected with TAA dissolved into saline thrice a week.
(§1) For tests of CX, mice were randomly divided into the following four groups (n=8, per group): (1) NT group, (2) TAA group (200 mg/kg), (3) CX group (CX20, 20 mg/kg), and (4) CX group (CX50, 50 mg/kg). NT group received pure saline, and other groups intraperitoneally injected with TAA dissolved into saline thrice a week. Moreover, NT group and TAA group also received 5% propylene glycol, while CX groups received CX dissolved into 5% propylene glycol (prepared in 0.9% saline) by oral gavage once per day.
At the end of the experiment, the mice were sacrificed. Serum was obtained from the whole blood of mice after centrifuging and stored at −80° C., and the liver tissues were collected and used for the tissue histological staining.
The procedure of biochemical analysis is as follows. The levels of serum alanine aminotransferase (ALT), aspartate aminotransferase (AST), total bilirubin (TBIL), alkaline phosphatase (ALP), total cholesterol (TC), total glyceride (TG), and glucose were measured with the chemistry analyzer. Briefly, after centrifuging the whole blood from mice, collected the serum, dropped the serum at the tested chips for analysis with an Automated Clinical Chemistry Analyzer (Fuji, Japan).

[2] = test system: TAA-induced liver fibrotic C57BL/6J mice; assay: Liver histopathological observation (H&E, Sirius Red, IHC staining); assay type: in vivo; details: 6 weeks; for collagen deposition (Sirius Red) / inflammatory infiltration (H&E) / liver structure deformation (H&E) / α-SMA expression (IHC): vs TAA group
Description: According to the present invention, animals used in the following examples are described as follows. Male C57BL/6J mice (5-week-old) were from the National Laboratory Animal Center (Taipei, Taiwan), and housed in a temperature-controlled room on a 12 h light-dark cycle with free access to food and drinking water at the Animal Center of the National Yang Ming Chiao Tung University (Taipei, Taiwan). All experiments were approved by Institutional Animal Care and Use Committee of National Yang Ming Chiao Tung University. […]
as §1, with “day. […]” for “day.”
The procedure of liver histopathological observation is as follows. After fixation in 10% neutral buffered formalin solution, the liver tissues were embedded with paraffin and then sliced into 4 μm-thickness sections. Pathological sections were examined to assess the change of tissue architecture with the H&E staining kit (CIS-Biotechnology, Taiwan), the condition of collagen deposition with the Sirius Red staining kit (CIS-Biotechnology, Taiwan), and the expression of specific proteins in tissue with the immunohistochemistry kit (Agilent, USA), as well as phospho-SMAD2 (1:100; GeneTex, USA), phospho-SMAD3 (1:100; GeneTex, USA), and α-SMA (1:100; GeneTex, USA) antibodies.
To examine the effects of CX on liver fibrosis, this example established a TAA-induced liver fibrotic C57BL/6J mouse model. FIG. 6 is a schematic diagram of animal experiment design in 6-methoxybenzoxazolinone (6-MBOA) (CX) groups. For animal experiments, 6-week-old C57BL/6J mice were randomly divided into four groups including NT, TAA, CX20 (TAA+20 mg/kg CX), CX50 (TAA+50 mg/kg CX). (n=8 per group). Mice were given intraperitoneal injection of TAA thrice a week to induce liver fibrosis; they also received CX or the vehicle by oral gavage once per day. At the end of animal tests, mice were sacrificed at 12 weeks of age. Six-week-old mice were randomly divided into four groups, namely NT, TAA, CX20 and CX50 (FIG. 6). Among these groups, only the NT group was oral gavaged and administered with vehicle, the TAA group was oral gavaged with vehicle and administered with TAA, and the CX groups were oral gavaged with CX and administered with TAA. Oral gavage was performed once a day while intraperitoneal injection was given thrice a week; both oral gavage and intraperitoneal injection were continuously administered for six weeks. After that, the mice were sacrificed, and their liver tissues and serum were collected for subsequent analyses.

[3] = test system: TGF-β1-activated HSC-T6 cells; assay: ROS detection assay (DCFDA); assay type: cell-based, rat; details: HSC-T6, TGF-β1, CX 10-100 μM, with increasing doses
Description: The procedure of cell cultures is as follows. HSC-T6 cell is an immortalized cell line isolated from transformed SV40 large T-antigen transformed primary stellate cells of male Sprague-Dawley rats. HSC-T6 cells were maintained in Dulbecco's Modified Eagle Medium (DMEM, Sigma-Aldrich, USA) containing 8% fetal bovine serum (FBS, HyClone, USA), 100 U/mL of penicillin, and 100 μg/mL of streptomycin (Gibco, USA).
For hepatic stellate cell (HSC) activation, cells were cultured for 24 h and then replaced with serum-free medium for 24 h, after that, treated with transforming growth factor beta 1 (TGF-β1) (10 ng/mL) in the presence or absence of CX (10-100 μM) or adlay leaf, root, and seed extracts (25 and 50 μg/mL) for 24 h, or 30 min for intracellular signal pathways.
The procedure of ROS detection assay is as follows. 2′,7′-Dichlorofluorescein diacetate (DCFDA), a cell-permeable fluorogenic probe, is usually used to detect ROS and nitric oxide in live cells. DCFDA rapidly de-esterifies to form fluorescent 2′,7′-dichlorofluorescein (DCF) when it is oxidized by ROS in cells. For ROS detection, cells were seeded in the 96-well plate for 24 h, then starvation (culture in serum-free medium) and drug treatment, followed by changing the medium with DCFDA solution for 30 min, and detecting the excitation/emission spectra of 485/525 nm by multimode microplate readers (TECAN, Switzerland).

[4] = CX20: 20 mg/kg oral gavage once per day
[5] = CX50: 50 mg/kg oral gavage once per day

## COc1ccc2[nH]c(=O)oc2c1 [CX, 6-methoxybenzoxazolinone]
[1]
  changes in serum TC level caused by TAA: significantly reduced
  changes in serum TG level caused by TAA: significantly reduced
  changes in serum glucose level caused by TAA: significantly reduced
  serum ALP: decreased significantly
  serum ALT: decreased significantly
  serum AST: decreased significantly
  serum TBIL: decreased significantly
[2]; [4]
  collagen deposition (Sirius Red): significantly reduced
  inflammatory infiltration (H&E): significantly reduced
  liver structure deformation (H&E): significantly reduced
  α-SMA expression (IHC): significantly reduced
[2]; [5]
  p-SMAD2 expression (IHC): negatively regulated
  p-SMAD3 expression (IHC): negatively regulated
  collagen deposition (Sirius Red): significantly reduced
  inflammatory infiltration (H&E): significantly reduced
  liver structure deformation (H&E): significantly reduced
  α-SMA expression (IHC): significantly reduced
[3]
  TGF-β1-induced ROS levels (DCFDA): reduced
